Assay results: ChEMBL document CHEMBL1201862, “PubChem BioAssay data set” (2004)
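How tested: cells in 96-well plates exposed to compound for 48 hours at five concentrations. At the GI50, growth is halved.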 The source made the active and inactive calls. Cut-off read from the data, not from the text of the source: active = GI50 up to about 1.1 µM and inactive = higher.

Columns and labels:
Assay in all cases: NCI-60 cell line screen, 48 h
786-0 = system: 786-0
A498 = system: A498
A549 = system: A549
ACHN = system: ACHN
BT-549 = system: BT-549
CAKI-1 = system: CAKI-1
CCRF-CEM = system: CCRF-CEM
COLO 205 = system: COLO 205
DU-145 = system: DU-145
EKVX = system: EKVX
HCC 2998 = system: HCC 2998
HCT-116 = system: HCT-116
HCT-15 = system: HCT-15
HL-60 = system: HL-60
HOP-62 = system: HOP-62
HOP-92 = system: HOP-92
HT-29 = system: HT-29
Hs-578T = system: Hs-578T
IGROV-1 = system: IGROV-1
K562 = system: K562
KM12 = system: KM12
LOX IMVI = system: LOX IMVI
M14 = system: M14
MCF7 = system: MCF7
MDA-MB-231 = system: MDA-MB-231
MDA-MB-435 = system: MDA-MB-435
MDA-N = system: MDA-N
MOLT-4 = system: MOLT-4
Malme-3M = system: Malme-3M
NCI-H23 = system: NCI-H23
NCI-H460 = system: NCI-H460
NCI-H522 = system: NCI-H522
NCI/ADR-RES = system: NCI/ADR-RES
OVCAR-3 = system: OVCAR-3
OVCAR-4 = system: OVCAR-4
OVCAR-5 = system: OVCAR-5
OVCAR-8 = system: OVCAR-8
PC-3 = system: PC-3
RPMI-8226 = system: RPMI-8226
RXF 393 = system: RXF 393
SF-268 = system: SF-268
SF-295 = system: SF-295
SF-539 = system: SF-539
SK-MEL-28 = system: SK-MEL-28
SK-MEL-2 = system: SK-MEL-2
SK-MEL-5 = system: SK-MEL-5
SK-OV-3 = system: SK-OV-3
SN12C = system: SN12C
SNB-19 = system: SNB-19
SNB-75 = system: SNB-75
SR = system: SR
SW-620 = system: SW-620
T47D = system: T47D
TK-10 = system: TK-10
U-251 = system: U-251
UACC-257 = system: UACC-257
UACC-62 = system: UACC-62
UO-31 = system: UO-31
NCI-H226 = system: NCI-H226

Oc1ccc2ccccc2c1C(c1ccc(Cl)cc1)c1c(O)ccc2ccccc12
GI50 (786-0): 3.66 µM (inactive)
GI50 (A498): 2.7 µM (inactive)
GI50 (A549): 2.95 µM (inactive)
GI50 (ACHN): 3.52 µM (inactive)
GI50 (BT-549): 4.65 µM (inactive)
GI50 (CAKI-1): 2.71 µM (inactive)
GI50 (CCRF-CEM): 2.63 µM (inactive)
GI50 (COLO 205): 2.06 µM (inactive)
GI50 (DU-145): 3.37 µM (inactive)
GI50 (EKVX): 2.59 µM (inactive)
GI50 (HCC 2998): 1.34 µM (inactive)
GI50 (HCT-116): 2.48 µM (inactive)
GI50 (HCT-15): 3.49 µM
GI50 (HL-60): 2.34 µM (inactive)
GI50 (HOP-62): 3.89 µM (inactive)
GI50 (HOP-92): 1.65 µM (inactive)
GI50 (HT-29): 2.98 µM (inactive)
GI50 (Hs-578T): 0.989 µM (active)
GI50 (IGROV-1): 2.35 µM (inactive)
GI50 (K562): 2.67 µM (inactive)
GI50 (KM12): 2.67 µM (inactive)
GI50 (LOX IMVI): 2.91 µM (inactive)
GI50 (M14): 4.06 µM (inactive)
GI50 (MCF7): 3.57 µM (inactive)
GI50 (MDA-MB-231): 3.17 µM (inactive)
GI50 (MDA-MB-435): 3.18 µM (inactive)
GI50 (MDA-N): 3.31 µM (inactive)
GI50 (MOLT-4): 2.86 µM (inactive)
GI50 (Malme-3M): 2 µM (inactive)
GI50 (NCI-H23): 3.78 µM (inactive)
GI50 (NCI-H460): 3.16 µM (inactive)
GI50 (NCI-H522): 2.09 µM (inactive)
GI50 (NCI/ADR-RES): 2.85 µM (inactive)
GI50 (OVCAR-3): 2.63 µM (inactive)
GI50 (OVCAR-4): 3.05 µM (inactive)
GI50 (OVCAR-5): 3.08 µM (inactive)
GI50 (OVCAR-8): 3.33 µM (inactive)
GI50 (PC-3): 2.51 µM (inactive)
GI50 (RPMI-8226): 2.01 µM (inactive)
GI50 (RXF 393): 2.96 µM (inactive)
GI50 (SF-268): 1.66 µM (inactive)
GI50 (SF-295): 3.4 µM (inactive)
GI50 (SF-539): 5.05 µM (inactive)
GI50 (SK-MEL-28): 3.87 µM (inactive)
GI50 (SK-MEL-2): 2.4 µM (inactive)
GI50 (SK-MEL-5): 2.3 µM (inactive)
GI50 (SK-OV-3): 4.66 µM (inactive)
GI50 (SN12C): 2.76 µM (inactive)
GI50 (SNB-19): 4.93 µM (inactive)
GI50 (SNB-75): 3.18 µM (inactive)
GI50 (SR): 2.82 µM (inactive)
GI50 (SW-620): 3.18 µM (inactive)
GI50 (T47D): 2.86 µM (inactive)
GI50 (TK-10): 3.53 µM (inactive)
GI50 (U-251): 3.43 µM (inactive)
GI50 (UACC-257): 4.13 µM (inactive)
GI50 (UACC-62): 3.48 µM (inactive)
GI50 (UO-31): 2.9 µM (inactive)

CCOC(=O)c1cc(C2(O)CCN(CC(C)CC)C2=O)c(-c2cc(C)no2)[nH]1 (stereo not given)
GI50 (786-0): > 100 µM (inactive)
GI50 (A498): > 100 µM (inactive)
GI50 (A549): > 100 µM (inactive)
GI50 (BT-549): > 100 µM (inactive)
GI50 (CAKI-1): > 100 µM (inactive)
GI50 (CCRF-CEM): > 100 µM (inactive)
GI50 (COLO 205): > 100 µM (inactive)
GI50 (DU-145): > 100 µM (inactive)
GI50 (EKVX): > 100 µM (inactive)
GI50 (HCC 2998): > 100 µM (inactive)
GI50 (HCT-116): > 100 µM (inactive)
GI50 (HCT-15): > 100 µM
GI50 (HL-60): > 100 µM (inactive)
GI50 (HOP-62): > 100 µM (inactive)
GI50 (HOP-92): > 100 µM (inactive)
GI50 (HT-29): > 100 µM (inactive)
GI50 (Hs-578T): > 100 µM (inactive)
GI50 (IGROV-1): > 100 µM (inactive)
GI50 (K562): > 100 µM (inactive)
GI50 (KM12): > 100 µM (inactive)
GI50 (LOX IMVI): > 100 µM (inactive)
GI50 (M14): > 100 µM (inactive)
GI50 (MCF7): > 100 µM (inactive)
GI50 (MDA-MB-231): > 100 µM (inactive)
GI50 (MDA-MB-435): > 100 µM (inactive)
GI50 (MDA-N): > 100 µM (inactive)
GI50 (MOLT-4): > 100 µM (inactive)
GI50 (Malme-3M): > 100 µM (inactive)
GI50 (NCI-H226): > 100 µM (inactive)
GI50 (NCI-H23): > 100 µM (inactive)
GI50 (NCI-H460): > 100 µM (inactive)
GI50 (NCI/ADR-RES): > 100 µM (inactive)
GI50 (OVCAR-3): > 100 µM (inactive)
GI50 (OVCAR-4): > 100 µM (inactive)
GI50 (OVCAR-5): > 100 µM (inactive)
GI50 (OVCAR-8): > 100 µM (inactive)
GI50 (PC-3): > 100 µM (inactive)
GI50 (RPMI-8226): > 100 µM (inactive)
GI50 (RXF 393): > 100 µM (inactive)
GI50 (SF-268): > 100 µM (inactive)
GI50 (SF-295): > 100 µM (inactive)
GI50 (SF-539): > 100 µM (inactive)
GI50 (SK-MEL-28): > 100 µM (inactive)
GI50 (SK-MEL-2): > 100 µM (inactive)
GI50 (SK-MEL-5): > 100 µM (inactive)
GI50 (SK-OV-3): > 100 µM (inactive)
GI50 (SN12C): > 100 µM (inactive)
GI50 (SNB-19): > 100 µM (inactive)
GI50 (SNB-75): > 100 µM (inactive)
GI50 (SR): > 100 µM (inactive)
GI50 (SW-620): > 100 µM (inactive)
GI50 (T47D): > 100 µM (inactive)
GI50 (U-251): > 100 µM (inactive)
GI50 (UACC-257): > 100 µM (inactive)
GI50 (UACC-62): > 100 µM (inactive)
GI50 (UO-31): > 100 µM (inactive)

Cc1cn(CCCCCCOC(=O)NC(CCCNC(N)=O)C(=O)O)c(=O)[nH]c1=O (stereo not given)
GI50 (786-0): > 100 µM (inactive)
GI50 (A498): > 100 µM (inactive)
GI50 (A549): > 100 µM (inactive)
GI50 (ACHN): > 100 µM (inactive)
GI50 (BT-549): > 100 µM (inactive)
GI50 (CAKI-1): > 100 µM (inactive)
GI50 (CCRF-CEM): > 100 µM (inactive)
GI50 (COLO 205): > 100 µM (inactive)
GI50 (DU-145): > 100 µM (inactive)
GI50 (EKVX): > 100 µM (inactive)
GI50 (HCC 2998): > 100 µM (inactive)
GI50 (HCT-116): > 100 µM (inactive)
GI50 (HCT-15): > 100 µM
GI50 (HL-60): > 100 µM (inactive)
GI50 (HOP-62): > 100 µM (inactive)
GI50 (HOP-92): > 100 µM (inactive)
GI50 (HT-29): > 100 µM (inactive)
GI50 (Hs-578T): > 100 µM (inactive)
GI50 (IGROV-1): > 100 µM (inactive)
GI50 (K562): > 100 µM (inactive)
GI50 (KM12): > 100 µM (inactive)
GI50 (LOX IMVI): > 100 µM (inactive)
GI50 (M14): > 100 µM (inactive)
GI50 (MCF7): > 100 µM (inactive)
GI50 (MDA-MB-231): > 100 µM (inactive)
GI50 (MDA-MB-435): > 100 µM (inactive)
GI50 (MDA-N): > 100 µM (inactive)
GI50 (MOLT-4): > 100 µM (inactive)
GI50 (NCI-H226): > 100 µM (inactive)
GI50 (NCI-H23): > 100 µM (inactive)
GI50 (NCI-H460): > 100 µM (inactive)
GI50 (NCI/ADR-RES): > 100 µM (inactive)
GI50 (OVCAR-3): > 100 µM (inactive)
GI50 (OVCAR-4): > 100 µM (inactive)
GI50 (OVCAR-5): > 100 µM (inactive)
GI50 (OVCAR-8): > 100 µM (inactive)
GI50 (PC-3): > 100 µM (inactive)
GI50 (RPMI-8226): > 100 µM (inactive)
GI50 (RXF 393): > 100 µM (inactive)
GI50 (SF-268): > 100 µM (inactive)
GI50 (SF-295): > 100 µM (inactive)
GI50 (SF-539): > 100 µM (inactive)
GI50 (SK-MEL-28): > 100 µM (inactive)
GI50 (SK-MEL-2): > 100 µM (inactive)
GI50 (SK-OV-3): > 100 µM (inactive)
GI50 (SN12C): > 100 µM (inactive)
GI50 (SNB-19): > 100 µM (inactive)
GI50 (SNB-75): > 100 µM (inactive)
GI50 (SR): > 100 µM (inactive)
GI50 (SW-620): > 100 µM (inactive)
GI50 (T47D): > 100 µM (inactive)
GI50 (TK-10): > 100 µM (inactive)
GI50 (U-251): > 100 µM (inactive)
GI50 (UACC-257): > 100 µM (inactive)
GI50 (UACC-62): > 100 µM (inactive)
GI50 (UO-31): > 100 µM (inactive)
